Reference: patent US6409716B1, “Drug delivery” (Scimed Life Systems, Inc., priority 1989, dated 2002)

Test system: intracoronary thrombus
Test: Local delivery of urokinase from hydrogel-coated balloon during balloon angioplasty in patients
Format: in vivo
Settings: all 11 patients; balloon immersed in 50,000 units/ml; pressure in excess of 2 atmospheres; 1-2 inflations, 1-5 minutes
Protocol: To evaluate the efficacy of local delivery of urokinase during balloon angioplasty in treating intracoronary thrombus according to the invention, 11 patients were treated with hydrogel-coated balloons which had been immersed in a concentrated solution of urokinase (50,000 units/ml). Eight patients presented with acute myocardial infarctions, while the remaining three had unstable angina. Five patients had received intravenous thrombolytic therapy, including systemic thrombolysis. Conventional balloon angioplasty was initially performed in 9 of the 11 patients and was complicated either by acute thrombotic closure (n=7) or slow antegrade flow with the appearance of intracoronary thrombus (n=2). The remaining 2 patients had coronary stenoses with angiographic evidence of thrombus, but were not initially treated with conventional angioplasty.

With urokinase the “outcome of balloon dilatation with urokinase-impregnated, hydrogel-coated balloon” value was “reversal of abrupt closure and dissolution of intracoronary thrombus”.
